Source: patent US11370798B2 (Vertex Pharmaceuticals Incorporated, priority 2012, dated 2022)
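Also: Test-compound concentration that lowers the Cisplatin IC50 by a set fold.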

Each compound was assayed on HCT116 colorectal cancer cells (assay: Cisplatin sensitization assay (96 h cell viability MTS)). Settings: compound and Cisplatin added simultaneously, Cisplatin sensitization value.
Type: cell-based
Summary of the method: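 Compound and cisplatin added together as a full matrix of 2-fold serial dilutions from a top final concentration of 10 μM; cells incubated 96 h at 37° C, 5% CO2. Viability then read by MTS after 1 h further incubation; sensitization value reported in μM bins.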
Cc1cncc(NC(=O)c2c(N)nn3cc(F)cnc23)c1N1CCN(C2CCOCC2)CC1 [I-N-123, 2-amino-6-fluoro-N-(5-methyl-4-(4-(tetrahydro-2H-pyran-4-yl)piperazin-1-yl)pyridin-3-yl)pyrazolo[1,5-a]pyrimidine-3-carboxamide] was tested, and the “Cisplatin Sensitization Assay” value was “++ (Cisplatin sensitization value>0.02 μM but <0.2 μM)”.
Nc1nn2cc(F)cnc2c1C(=O)Nc1cncc(Cl)c1N1CCN(C2CCOC2)CC1 (centres unmarked) [I-N-124, 2-amino-N-(5-chloro-4-(4-(tetrahydrofuran-3-yl)piperazin-1-yl)pyridin-3-yl)-6-fluoropyrazolo[1,5-a]pyrimidine-3-carboxamide] was tested, and the “Cisplatin Sensitization Assay” value was “+++ (Cisplatin sensitization value of <0.02 μM)”.
With Nc1nn2cc(F)cnc2c1C(=O)Nc1cncc(F)c1N1CCN([C@H]2CCOC2)CC1 [I-N-125, (S)-2-amino-6-fluoro-N-(5-fluoro-4-(4-(tetrahydrofuran-3-yl)piperazin-1-yl)pyridin-3-yl)pyrazolo[1,5-a]pyrimidine-3-carboxamide] the “Cisplatin Sensitization Assay” value was “+++ (Cisplatin sensitization value of <0.02 μM)”.
With Nc1nn2cc(F)cnc2c1C(=O)Nc1cncc(Cl)c1N1CCNCC1 [I-N-126, 2-amino-N-(5-chloro-4-(piperazin-1-yl)pyridin-3-yl)-6-fluoropyrazolo[1,5-a]pyrimidine-3-carboxamide] the “Cisplatin Sensitization Assay” value was “+++ (Cisplatin sensitization value of <0.02 μM)”.
With COCCN1CCN(c2c(F)cncc2NC(=O)c2c(N)nn3cc(F)cnc23)CC1 [I-N-127, 2-amino-6-fluoro-N-(5-fluoro-4-(4-(2-methoxyethyl)piperazin-1-yl)pyridin-3-yl)pyrazolo[1,5-a]pyrimidine-3-carboxamide] the “Cisplatin Sensitization Assay” value was “+++ (Cisplatin sensitization value of <0.02 μM)”.
With CN1CCC(C(=O)N2CCN(c3c(F)cncc3NC(=O)c3c(N)nn4cc(F)cnc34)CC2)CC1 [I-N-128, 2-amino-6-fluoro-N-(5-fluoro-4-(4-(1-methylpiperidine-4-carbonyl)piperazin-1-yl)pyridin-3-yl)pyrazolo[1,5-a]pyrimidine-3-carboxamide] the “Cisplatin Sensitization Assay” value was “+++ (Cisplatin sensitization value of <0.02 μM)”.
With Nc1nn2cc(F)cnc2c1C(=O)Nc1cncc(F)c1N1CCN(C(=O)C2CN3CCC2CC3)CC1 (centres unmarked) [I-N-130, 2-amino-6-fluoro-N-(5-fluoro-4-(4-(quinuclidine-3-carbonyl)piperazin-1-yl)pyridin-3-yl)pyrazolo[1,5-a]pyrimidine-3-carboxamide] the “Cisplatin Sensitization Assay” value was “++ (Cisplatin sensitization value>0.02 μM but <0.2 μM)”.
CN1CC[C@@H](OC2CCN(c3ccncc3NC(=O)c3c(N)nn4cc(F)cnc34)CC2)C1 [I-N-131] was tested, and the “Cisplatin Sensitization Assay” value was “+++ (Cisplatin sensitization value of <0.02 μM)”.
With CN1CC[C@@H](OC2CCN(c3c(F)cncc3NC(=O)c3c(N)nn4cc(F)cnc34)CC2)C1 [I-N-132, (R)-2-amino-6-fluoro-N-(5-fluoro-4-(4-((1-methylpyrrolidin-3-yl)oxy)piperidin-1-yl)pyridin-3-yl)pyrazolo[1,5-a]pyrimidine-3-carboxamide] the “Cisplatin Sensitization Assay” value was “+++ (Cisplatin sensitization value of <0.02 μM)”.
For CN1CCN(c2ccncc2NC(=O)c2c(N)nn3cc(F)cnc23)CC12CCOCC2 [I-N-133, 2-amino-6-fluoro-N-(4-(1-methyl-9-oxa-1,4-diazaspiro[5.5]undecan-4-yl)pyridin-3-yl)pyrazolo[1,5-a]pyrimidine-3-carboxamide], the “Cisplatin Sensitization Assay” value was “++ (Cisplatin sensitization value>0.02 μM but <0.2 μM)”.
For Nc1nn2cc(F)cnc2c1C(=O)Nc1cncc(F)c1N1CCN(C(=O)C23CCN(CC2)CC3)CC1 [I-N-134, 2-amino-6-fluoro-N-(5-fluoro-4-(4-(quinuclidine-4-carbonyl)piperazin-1-yl)pyridin-3-yl)pyrazolo[1,5-a]pyrimidine-3-carboxamide], the “Cisplatin Sensitization Assay” value was “+ (Cisplatin sensitization value>0.2 μM but <5 μM)”.
With Nc1nn2cc(F)cnc2c1C(=O)Nc1cncc(F)c1N1CCN2CCOC[C@H]2C1 [I-N-135, (R)-2-amino-6-fluoro-N-(5-fluoro-4-(hexahydropyrazino[2,1-c][1,4]oxazin-8(1H)-yl)pyridin-3-yl)pyrazolo[1,5-a]pyrimidine-3-carboxamide] the “Cisplatin Sensitization Assay” value was “+++ (Cisplatin sensitization value of <0.02 μM)”.
Nc1nn2cc(F)cnc2c1C(=O)Nc1cnccc1N1CCN2C(=O)COCC2C1 (centres unmarked) [I-N-136, 2-amino-6-fluoro-N-(4-(4-oxohexahydropyrazino[2,1-c][1,4]oxazin-8(1H)-yl)pyridin-3-yl)pyrazolo[1,5-a]pyrimidine-3-carboxamide] was tested, and the “Cisplatin Sensitization Assay” value was “++ (Cisplatin sensitization value>0.02 μM but <0.2 μM)”.
In the case of Nc1nn2cc(F)cnc2c1C(=O)Nc1cncc(F)c1N1CCN2CCOC[C@@H]2C1 [I-N-137, (S)-2-amino-6-fluoro-N-(5-fluoro-4-(hexahydropyrazino[2,1-c][1,4]oxazin-8(1H)-yl)pyridin-3-yl)pyrazolo[1,5-a]pyrimidine-3-carboxamide], the “Cisplatin Sensitization Assay” value is reported as “++ (Cisplatin sensitization value>0.02 μM but <0.2 μM)”.
With CN1CCN(c2c(F)cncc2NC(=O)c2c(N)nn3cc(C(C)(C)C#N)cnc23)CC1 [I-N-138, 2-amino-6-(2-cyanopropan-2-yl)-N-(5-fluoro-4-(4-methylpiperazin-1-yl)pyridin-3-yl)pyrazolo[1,5-a]pyrimidine-3-carboxamide] the “Cisplatin Sensitization Assay” value was “++ (Cisplatin sensitization value>0.02 μM but <0.2 μM)”.
In the case of CC(C)(O)CN1CCN(c2c(F)cncc2NC(=O)c2c(N)nn3cc(F)cnc23)CC1 [I-N-139, 2-amino-6-fluoro-N-(5-fluoro-4-(4-(2-hydroxy-2-methylpropyl)piperazin-1-yl)pyridin-3-yl)pyrazolo[1,5-a]pyrimidine-3-carboxamide], the “Cisplatin Sensitization Assay” value is reported as “+++ (Cisplatin sensitization value of <0.02 μM)”.
With CN1CCN(C(=O)N2CCN(c3c(F)cncc3NC(=O)c3c(N)nn4cc(F)cnc34)CC2)CC1 [I-N-140, 2-amino-6-fluoro-N-(5-fluoro-4-(4-(4-methylpiperazine-1-carbonyl)piperazin-1-yl)pyridin-3-yl)pyrazolo[1,5-a]pyrimidine-3-carboxamide] the “Cisplatin Sensitization Assay” value was “+++ (Cisplatin sensitization value of <0.02 μM)”.
With Nc1nn2cc(F)cnc2c1C(=O)Nc1cnccc1N1CCOCC1 [I-N-141, 2-amino-6-fluoro-N-(4-morpholinopyridin-3-yl)pyrazolo[1,5-a]pyrimidine-3-carboxamide] the “Cisplatin Sensitization Assay” value was “+++ (Cisplatin sensitization value of <0.02 μM)”.
With CC(C)(C#N)c1cnc2c(C(=O)Nc3cnccc3N3CCN(C4COC4)CC3)c(N)nn2c1 [I-N-142, 2-amino-6-(2-cyanopropan-2-yl)-N-(4-(4-(oxetan-3-yl)piperazin-1-yl)pyridin-3-yl)pyrazolo[1,5-a]pyrimidine-3-carboxamide] the “Cisplatin Sensitization Assay” value was “++ (Cisplatin sensitization value>0.02 μM but <0.2 μM)”.
CC(C#N)c1cnc2c(C(=O)Nc3cnccc3N3CCN(C4COC4)CC3)c(N)nn2c1 (centres unmarked) [I-N-143, 2-amino-6-(1-cyanoethyl)-N-(4-(4-(oxetan-3-yl)piperazin-1-yl)pyridin-3-yl)pyrazolo[1,5-a]pyrimidine-3-carboxamide] was tested, and the “Cisplatin Sensitization Assay” value was “++ (Cisplatin sensitization value>0.02 μM but <0.2 μM)”.
With CC(C)(C#N)c1cnc2c(C(=O)Nc3cncc(F)c3N3CCN(C4COC4)CC3)c(N)nn2c1 [I-N-144] the “Cisplatin Sensitization Assay” value was “+++ (Cisplatin sensitization value of <0.02 μM)”.
For CN(C)S(=O)(=O)C1CCN(c2c(F)cncc2NC(=O)c2c(N)nn3cc(F)cnc23)CC1 [I-N-146, 2-amino-N-(4-(4-(N,N-dimethylsulfamoyl)piperidin-1-yl)-5-fluoropyridin-3-yl)-6-fluoropyrazolo[1,5-a]pyrimidine-3-carboxamide], the “Cisplatin Sensitization Assay” value was “+++ (Cisplatin sensitization value of <0.02 μM)”.
With Nc1nn2cc(F)cnc2c1C(=O)Nc1cncc(F)c1N1CCC(N2CCCC2=O)CC1 [I-N-147, 2-amino-6-fluoro-N-(5-fluoro-4-(4-(2-oxopyrrolidin-1-yl)piperidin-1-yl)pyridin-3-yl)pyrazolo[1,5-a]pyrimidine-3-carboxamide] the “Cisplatin Sensitization Assay” value was “+++ (Cisplatin sensitization value of <0.02 μM)”.
CN1CCC(N(C)S(=O)(=O)C2CCN(c3c(F)cncc3NC(=O)c3c(N)nn4cc(F)cnc34)CC2)CC1 [I-N-148, 2-amino-6-fluoro-N-(5-fluoro-4-(4-(N-methyl-N-(1-methylpiperidin-4-yl)sulfamoyl)piperidin-1-yl)pyridin-3-yl)pyrazolo[1,5-a]pyrimidine-3-carboxamide] was tested, and the “Cisplatin Sensitization Assay” value was “+++ (Cisplatin sensitization value of <0.02 μM)”.
For Nc1nn2cc(F)cnc2c1C(=O)Nc1cncc(F)c1N1CCC(CN2CCOCC2)CC1 [I-N-149, 2-amino-6-fluoro-N-(5-fluoro-4-(4-(morpholinomethyl)piperidin-1-yl)pyridin-3-yl)pyrazolo[1,5-a]pyrimidine-3-carboxamide], the “Cisplatin Sensitization Assay” value was “+++ (Cisplatin sensitization value of <0.02 μM)”.
With CN1CCN(CC2CCN(c3c(F)cncc3NC(=O)c3c(N)nn4cc(F)cnc34)CC2)CC1 [I-N-150, 2-amino-6-fluoro-N-(5-fluoro-4-(4-((4-methylpiperazin-1-yl)methyl)piperidin-1-yl)pyridin-3-yl)pyrazolo[1,5-a]pyrimidine-3-carboxamide] the “Cisplatin Sensitization Assay” value was “+++ (Cisplatin sensitization value of <0.02 μM)”.
With CN1CCN(C2CCN(c3c(F)cncc3NC(=O)c3c(N)nn4cc(F)cnc34)CC2)C(=O)C1 [I-N-151, 2-amino-6-fluoro-N-(5-fluoro-4-(4-(4-methyl-2-oxopiperazin-1-yl)piperidin-1-yl)pyridin-3-yl)pyrazolo[1,5-a]pyrimidine-3-carboxamide] the “Cisplatin Sensitization Assay” value was “+ (Cisplatin sensitization value>0.2 μM but <5 μM)”.
For Nc1nn2cc(F)cnc2c1C(=O)Nc1cnccc1N1CCCCC1 [I-N-152, 2-amino-6-fluoro-N-(4-(piperidin-1-yl)pyridin-3-yl)pyrazolo[1,5-a]pyrimidine-3-carboxamide], the “Cisplatin Sensitization Assay” value was “+++ (Cisplatin sensitization value of <0.02 μM)”.
In the case of CN(C)CC(=O)N1CCN(c2c(F)cncc2NC(=O)c2c(N)nn3cc(F)cnc23)CC1 [I-N-153, 2-amino-N-(4-(4-(2-(dimethylamino)acetyl)piperazin-1-yl)-5-fluoropyridin-3-yl)-6-fluoropyrazolo[1,5-a]pyrimidine-3-carboxamide], the “Cisplatin Sensitization Assay” value is reported as “++ (Cisplatin sensitization value>0.02 μM but <0.2 μM)”.
